Our source for the Activity and IC50 values is ChEMBL document CHEMBL1146428, “Effects of flavonoids isolated from scutellariae radix on fibrinolytic system induced by trypsin in human umbilical vein endothelial cells” (J Nat Prod, 1997).

Structures are written as SMILES. Active and inactive are the calls of the source. The rule behind the calls is not given here. Some results are limits rather than exact numbers.

Test [1] addresses T1, Trypsin (Homo sapiens, UniProt P07477+P07478+P35030). Put plainly: Inhibition of trypsin-induced elevation in PAI1 production in HUVEC by ELISA. In kind it is cell-based. (In general: An ELISA detects its analyte on a solid surface through an enzyme-linked reagent.)
Test [2] is described as follows: Inhibition of trypsin by protease assay system.
Test [3] addresses T1, Trypsin. As to the kind of experiment: Inhibition of trypsin-induced reduction in tPA production in HUVEC by ELISA. In kind it is cell-based.

Take `O=c1cc(-c2ccccc2)oc2cc(O)c(O)c(O)c12` [BAICALEIN]: the Activity entry in test [1] and in test [3] was “Dose-dependent effect” each time. For the same compound, the figures for the IC50 in test [1] and in test [2] were 3.7 µM and 0.5 µM, respectively.
Consider `COc1c(O)cc(O)c2c(=O)cc(-c3ccccc3)oc12` [WOGONIN], for which the IC50 in test [1] is 105 µM. Besides, the outcome in test [3] was inactive.
Compound `COc1c(O[C@@H]2O[C@H](C(=O)O)[C@@H](O)[C@H](O)[C@H]2O)cc(O)c2c(=O)cc(-c3ccccc3)oc12` showed an IC50 in test [1] of more than 1000 µM. In test [3], the outcome was inactive.
Regarding `COc1cccc(O)c1-c1cc(=O)c2c(O)c(OC)c(OC)c(OC)c2o1` [SKULLCAPFLAVONE II], the IC50 in test [1] was 110 µM. For the same compound, the outcome in test [3] was inactive.
The like results for `COc1c(O)ccc(O)c1-c1cc(=O)c2c(O)cc(O)c(OC)c2o1` were, in that order, 88 µM and “inactive”.
The like results for `O=C(O)[C@H]1O[C@@H](Oc2cc3oc(-c4ccccc4)cc(=O)c3c(O)c2O)[C@H](O)[C@@H](O)[C@@H]1O` [BAICALIN] were, in that order, more than 1000 µM and “inactive”.
`COc1c(O)cc2oc(-c3ccccc3)cc(=O)c2c1O` [OROXYLIN A] came in with an IC50 in test [1] of 61 µM. Further, the outcome in test [3] was inactive.
The like results for `O=C1C[C@@H](c2c(O)cccc2O)Oc2cc(O)cc(O)c21` were, in that order, more than 1000 µM and “inactive”.

A word on the IC50: it is the concentration that gives 50% inhibition. Read a low IC50 as higher potency.
